Literature values in paper PMC7767166, “Imidazole and Imidazolium Antibacterial Drugs Derived from Amino Acids” (Pharmaceuticals, 2020).
Marks after values point to notes of the source that are not given here.

How the values were obtained:
B. subtilis = tested on: B. subtilis; parameters: method as in PMID 26777771; details: cited from earlier work
MRC-5 cells = tested on: MRC-5 cells; parameters: method as in PMID 19407848; details: cited from earlier work

Substance: Alamethicin
- B. subtilis MIC (B. subtilis): 16 µg/mL
- IC50 (cytotoxicity against MRC-5 cells) (MRC-5 cells): 62.5 ^f [42] μg/mL
